US7737126B2, “Purine derivative” (Glaxo Group Limited, priority 2004, dated 2010)

What was measured:
[1] = target: T1, HSA (Homo sapiens, UniProt P02768); experiment: HSA binding by immobilised HSA HPLC column; type: in vitro ADME; settings: for logK measured / % HSA measured: HSA column, typical data; for logK measured: derived from the calibration curve
T1 construct: purchased Chromtech (Cheshire, UK)
Description: Instrument: Agilent HP1100 HPLC instruments were used throughout.
HPLC columns: Chromtech Immobilised HSA HPLC column 50×3 mm was purchased from Chromtech (Cheshire, UK).
Mobile phase and detection: The mobile phase A was 50 mM pH 7.4 ammonium acetate solution, while mobile phase B was 2-Propanol (HPLC grade, Runcorn, UK). The mobile phase flow rate was 1.8 ml/min. The column temperature was kept at 30° C. The gradient profile and run time were the same with each column, the linear gradient from 0 to 30% 2-propanol was applied from 0 to 3 minutes. From 3 to 10 minutes, the mobile phase composition was constant 30% 2-propanol and 70% 50-mM ammonium acetate. […] Each separation was stopped after 15 minutes.
Detection: Chromatograms were recorded at 230 and 254 nm by a diode array UV absorption detector at room temperature.

[2] = system: plasma protein; experiment: Literature % plasma protein binding of calibration compounds; settings: linear conversion of literature % PPB
Description: Calibration of the protein columns: The column performance check and the calibration have been performed before the analysis of every 96 well plate. The compounds used for the column calibrations were dissolved separately in 0.5 mg/ml concentration in 50% 2-propanol and 50% pH 7.4 ammonium acetate solution mixtures.
The literature % PPB (bound in plasma) values were converted to the linear free energy related logk values (logarithm of apparent affinity constant) using the following equation.

[3] = target: T2, human adenosine A3 receptor (Homo sapiens, UniProt P0DMS8); experiment: Agonist activity against adenosine A3 receptor (CHO or yeast assay); type: cell-based; settings: A2A over A3
T2 construct: expressed in transfected cells; host or cells: CHO cells or yeast cells
T2 sequence (P0DMS8 1-318): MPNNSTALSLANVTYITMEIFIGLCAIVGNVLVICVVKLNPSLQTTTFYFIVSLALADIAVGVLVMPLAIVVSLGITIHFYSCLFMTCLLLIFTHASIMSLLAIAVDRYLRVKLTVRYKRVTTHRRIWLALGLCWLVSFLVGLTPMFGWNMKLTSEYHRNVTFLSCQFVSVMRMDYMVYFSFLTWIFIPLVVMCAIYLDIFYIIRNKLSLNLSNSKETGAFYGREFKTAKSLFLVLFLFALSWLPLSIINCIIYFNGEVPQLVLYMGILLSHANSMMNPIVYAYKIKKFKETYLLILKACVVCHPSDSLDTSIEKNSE
Description: (§1) 1) In Vitro: Agonist Activity Against Adenosine A1, A2A, A2B and A3 Receptors.
(§2) The agonist potency and selectivity of compounds against human adenosine receptors is determined using Chinese hamster ovary (CHO) cells or yeast cells transfected with the gene for the relevant receptor.
(§3) Two methods may be used in the CHO cells. (i) For the SPAP assay, cells are also transfected with cyclic AMP (cAMP) response elements promoting the gene for secreted placental alkaline phosphatase (SPAP). Changes in cAMP are measured as changes in the levels of SPAP. (ii) The DiscoveRx assay is an enzyme complementation assay that involves two fragments of β-galactosidase, enzyme acceptor (EA) and enzyme donor (ED). […] For both methods the effect of test compounds is determined by their effects on basal levels of cAMP (A2A and A2B) or on forskolin enhanced cAMP (A1 and A3).
(§4) For the yeast assay, receptor stimulation causes activation of a reporter gene, namely FUS1-HIS3, resulting in histidine production which is essential for cell growth. […] This response is measured from the production of the exoglucanase, an enzyme secreted constitutively by yeast cells.
(§5) In all of the in vitro assays the activity of test compounds is expressed as a ratio to that of the non-selective adenosine receptor agonist, N-ethyl carboxamide adenosine (NECA).

[4] = target: T3, human adenosine A2B receptor (Homo sapiens, UniProt P29275); experiment: Agonist activity against adenosine A2B receptor (CHO or yeast assay); type: cell-based; settings: A2A over A2B
T3 construct: expressed in transfected cells; host or cells: CHO cells or yeast cells
T3 sequence (P29275 1-332): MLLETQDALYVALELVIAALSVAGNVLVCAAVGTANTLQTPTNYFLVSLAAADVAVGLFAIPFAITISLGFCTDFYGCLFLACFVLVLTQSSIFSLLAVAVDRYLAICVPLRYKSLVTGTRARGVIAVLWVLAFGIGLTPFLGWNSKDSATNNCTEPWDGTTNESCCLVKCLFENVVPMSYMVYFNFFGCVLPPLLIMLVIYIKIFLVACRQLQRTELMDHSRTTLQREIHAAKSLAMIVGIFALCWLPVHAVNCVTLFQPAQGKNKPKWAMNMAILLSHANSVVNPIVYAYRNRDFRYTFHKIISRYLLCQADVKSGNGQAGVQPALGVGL
Description: as §1, §2, §3, §4, §5

[5] = system: neutrophil accumulation; experiment: In vivo anti-inflammatory LPS model; set-up: species or system rat; settings: male CD albino rats, intratracheal, dose of 30 μg/kg or less, lung lavage 4 h after LPS challenge
Description: In Vivo Anti-Inflammatory Agonist Activity LPS Model: Test compound was administered to male CD albino rats prior to exposure to LPS. Compound (or vehicle) was injected in a 200 ul volume into the trachea , via a cannula placed trans-orally, whilst the animals were under isoflurane anaesthesia. After a recovery period of 30 min, rats were placed in a chamber and exposed to an aerosol of E. Coli-derived LPS for 15 min. Four hours after LPS challenge the rats were killed, the lungs lavaged, and both total and differential cell counts determined.

[6] = Cardiovascular model (therapeutic index); type: in vivo, rat; settings: anaesthetised male Wistar rats, administered into the trachea
Description: 3) Therapeutic Index (TI) Cardiovascular Model: Male Wistar rats were anaesthetised with chloralose/pentobarbitone and the jugular vein, left carotid artery and trachea were cannulated. The arterial cannula was connected to a transducer for the continuous measurement of blood pressure and heart rate. Compound (or vehicle) was administered into the trachea in a 100 ul volume, and the dose of test compound giving a 20% increase in blood pressure and heart rate (ED20) was determined. The TI for a test compound is calculated as the ratio of the ED20 in the cardiovascular model compared with the ED50 in the LPS model.

[7] = target: T4, human adenosine A1 receptor (Homo sapiens, UniProt P30542); experiment: Agonist activity against adenosine A1 receptor (CHO or yeast assay); type: cell-based; settings: A2A over A1
T4 construct: expressed in transfected cells; host or cells: CHO cells or yeast cells
T4 sequence (P30542 1-326): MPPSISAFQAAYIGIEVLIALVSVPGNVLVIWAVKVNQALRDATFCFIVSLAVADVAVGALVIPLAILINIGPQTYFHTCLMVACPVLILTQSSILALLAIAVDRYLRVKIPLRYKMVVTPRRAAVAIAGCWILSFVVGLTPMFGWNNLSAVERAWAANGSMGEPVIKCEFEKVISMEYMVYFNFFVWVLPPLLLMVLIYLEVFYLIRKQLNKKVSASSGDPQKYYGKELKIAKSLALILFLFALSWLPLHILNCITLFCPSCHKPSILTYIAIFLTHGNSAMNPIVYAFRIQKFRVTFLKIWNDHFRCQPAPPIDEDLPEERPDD
Description: as §1, §2, §3, §4, §5

T1 sequence (P02768 25-609): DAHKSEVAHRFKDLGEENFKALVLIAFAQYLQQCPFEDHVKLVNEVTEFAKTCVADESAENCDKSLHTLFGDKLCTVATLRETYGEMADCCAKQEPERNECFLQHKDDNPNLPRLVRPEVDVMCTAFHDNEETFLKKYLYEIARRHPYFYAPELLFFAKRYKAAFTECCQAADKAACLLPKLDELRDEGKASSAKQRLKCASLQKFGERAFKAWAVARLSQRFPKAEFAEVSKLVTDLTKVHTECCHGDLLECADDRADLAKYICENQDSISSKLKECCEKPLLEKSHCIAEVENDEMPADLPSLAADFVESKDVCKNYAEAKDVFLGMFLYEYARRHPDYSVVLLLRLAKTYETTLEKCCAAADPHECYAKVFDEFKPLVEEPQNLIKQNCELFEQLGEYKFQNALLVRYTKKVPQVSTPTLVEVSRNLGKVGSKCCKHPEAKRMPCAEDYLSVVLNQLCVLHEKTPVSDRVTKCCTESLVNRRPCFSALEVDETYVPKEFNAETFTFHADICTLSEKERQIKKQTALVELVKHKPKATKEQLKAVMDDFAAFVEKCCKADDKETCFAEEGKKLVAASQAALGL

| Compound | logK measured [1] | % HSA measured [1] | lit logK [2] | also measured |
| --- | --- | --- | --- | --- |
| COC(=O)C1=C(C)NC(C)=C(C(=O)OCCN(C)Cc2ccccc2)C1c1cccc([N+](=O)[O-])c1 (stereo not drawn) [Nicardipine] | 1.38 | 97.0% |  |  |
| O=C1CN=C(c2ccccn2)c2cc(Br)ccc2N1 [Bromazepam] | 0.38 | 71.2% | 0.17 |  |
| O=C(O)Cc1ccccc1Nc1c(Cl)cccc1Cl [Diclofenac] |  |  | 1.92 |  |
| CCn1nnc([C@H]2O[C@@H](n3cnc4c(N[C@H]5CC[C@H](Nc6nc(NCCc7cn(C)cn7)nc7c6ncn7[C@@H]6O[C@H](c7nnn(CC)n7)[C@@H](O)[C@H]6O)CC5)nc(NCCc5cn(C)cn5)nc43)[C@H](O)[C@@H]2O)n1.O=CO [Formic acid—(2R,3R,4S,5R,2′R,3′R,4′S,5′R)-2,2′-{trans-1,4-cyclohexanediylbis[imino(2-{[2-(1-methyl-1H-imidazol-4-yl)ethyl]amino}-9H-purine-6,9-diyl)]}bis[5-(2-ethyl-2H-tetrazol-5-yl)tetrahydro-3,4-furandiol] (4:1)] |  |  |  | selectivity for A2A than A3 [3]: greater than 100 fold; selectivity for A2A than A2B [4]: greater than 100 fold; reduction in neutrophil accumulation [5]: greater than 50%; dose giving a 20% increase in blood pressure and heart rate (ED20) [6]: about 7 μg/kg; selectivity for A2A than A1 [7]: greater than 100 fold; binding to HSA ([1]; immobilised HSA HPLC column, pH 7.4): greater than 90% |
| CNC(=C[N+](=O)[O-])NCCSCc1csc(CN(C)C)n1 [Nizatidine] | −0.35 | 31.1% | −0.28 |  |
| CCCC1O[C@@H]2C[C@H]3[C@@H]4CCC5=CC(=O)C=C[C@]5(C)[C@H]4[C@@H](O)C[C@]3(C)[C@]2(C(=O)CO)O1 (stereo partly drawn) [Budesonide] | 0.70 | 84.2% | 0.83 |  |
| CN1C(C(=O)Nc2ccccn2)=C(O)c2ccccc2S1(=O)=O [Piroxicam] | 1.10 | 93.6% | 1.16 |  |
| NC(=O)N1c2ccccc2C=Cc2ccccc21 [Carbamazepine] | 0.50 | 76.8% | 0.46 |  |
